# Biological target: hTREM2 (Homo sapiens, UniProt Q9NZC2)
# Assay: Phospho-Syk AlphaScreen/AlphaLISA assay in TREM2 and DAP12 overexpressing HEK293 cells (Example A1)
# Type: cell-based
# Parameters: expressed in transfected cells
# Settings: HEK293 cells; for EC50: read-out: hTREM2 EC50
# Experimental: Pharmacological measurements of TREM2 signaling through DAP12 were made with TREM2 and DAP12 overexpressing HEK293 cells stable cell lines that had been single-cell cloned (“TREM2/DAP12-HEK”). The readout of the TREM2 signaling utilized Perkin Elmer AlphaScreen/AlphaLISA technology monitoring the phosphorylation levels of the Syk kinase. TREM2/DAP12-HEK cell lines were cultured in DMEM-F12 (Corning 10-092-CM) supplemented with 1× Penicillin/Streptomycin (Corning 30-002-CI), 1× GlutaMAX (Gibco 35050-061), and 10% Fetal Bovine Serum (Life Technologies 10099) referred to as “HEK Culture Medium”. Suspensions of TREM2/DAP12-HEK cells were prepared in HEK Culture Medium and dispensed into 384-well poly-D-lysine coated microplates (Corning 354661) at a density of 20,000 cells/well using a Multidrop Combi peristaltic microplate dispenser (Thermo), 25 uL volume of cell suspension/well. Plates containing cells were then incubated for 20 hours in a humidified cell culture incubator at 37° C. with 5% CO2 (Thermo). […] Assay Buffer contained diluted test articles (in 1% final DMSO concentration for compounds) or 100 nM anti-human/mouse TREM2 antibody (R&D Systems MAB17291) as a positive control, 100 nM or rat IgG2B isotype Ab as a negative control (R&D Systems MAB0061). Incubated the plates with test articles and controls for 45 minutes at room temperature and then aspirated/removed the medium from each well of the plates. Used a Multidrop Combi peristaltic liquid handler (Thermo) to dispense 15 uL/well of “Cell Lysis Immunoassay Buffer”. The Cell Lysis Immunoassay Buffer contained M-PER Mammalian Protein Extraction Reagent (Pierce/ThermoFisher 78505), 1× Halt Phosphatase Inhibitor Cocktail (ThermoFisher #78427), 0.1875 nM anti-phospho-Syk ([…]/526) ([…]) rabbit mAb (Cell Signaling Technologies catalog #2710), and 1.5 nM biotinylated Mouse anti-human Syk (4D10) antibody (BD Biosciences, catalog #624008). Incubated plates for 1 hour at room temperature after the addition of the Cell Lysis Immunoassay Buffer. Used the Multidrop Combi liquid handler to dispense 15 μL of AlphaScreen Acceptor Bead Solution containing 7.5 μg/mL anti-rabbit IgG (Fc specific) AlphaLISA Acceptor Beads (Perkin Elmer A[…]) in 1× Immunoassay buffer (Perkin Elmer A[…]) to each well of the microplates. Incubated plates for 2 hours at room temperature. Following the incubation with the AlphaLISA Acceptor Bead Solution, used a Multidrop Combi liquid handler (Thermo) to dispense 15 μL of AlphaScreen Donor Bead Solution containing 30 μg/mL of AlphaScreen Streptavidin Donor beads (Perkin Elmer 6760002B) in 1× Immunoassay buffer (Perkin Elmer A[…]) to each well of the microplates. Incubated microplates for 2 hours protected from light sources as the AlphaScreen reagents are light sensitive. Once the final incubation was completed, acquired AlphaScreen signal from the donor and acceptor beads using an Envision high throughput multi-modal microplate reader (Perkin Elmer) calibrated to the plate type with the AlphaScreen mirror and filter-set in 384-well mode, 680 nanometer excitation wavelength. The total measurement time per well was 550 milliseconds with a 180 millisecond excitation time. After reading the AlphaScreen signal for each well of the microplates, on a plate-by-plate basis, each raw test article well value (x) was normalized to a Percent of Control (“POC”) value using the following formula: […] Each plate contained 12 of each type of control wells that were used to generate the mean values. For concentration response curve analysis with test articles tested at various concentrations, the % of activation values were analyzed with 4 Parameter Logistic or Sigmoidal Dose-Response Models using GeneData Screener (GeneData, AG) or GraphPad Prism 7 (Graphpad Software, Inc.). […] This assay may be used to test any of the compounds described herein to assess and characterize a compound's ability to act as an agonist of TREM2.
# Chain of hTREM2 (Q9NZC2 19-230): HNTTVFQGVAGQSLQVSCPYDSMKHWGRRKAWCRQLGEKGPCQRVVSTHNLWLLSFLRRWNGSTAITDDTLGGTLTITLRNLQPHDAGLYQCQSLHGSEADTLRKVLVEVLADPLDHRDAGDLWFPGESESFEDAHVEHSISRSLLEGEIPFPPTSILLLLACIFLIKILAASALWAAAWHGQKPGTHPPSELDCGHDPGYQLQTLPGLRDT
# Chain of hTREM2 (O43914 22-113 partner): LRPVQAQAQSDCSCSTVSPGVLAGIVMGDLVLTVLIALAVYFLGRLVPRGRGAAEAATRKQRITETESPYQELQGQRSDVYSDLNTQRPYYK
Emax,EC50 [nM],SMILES
++++ (Emax>300),50 to 500,"CCCn1c(C)nc2cc(N3CCO[C@@H](c4cnn(C)c4)C3)nc(-c3ncc(Cl)cc3F)c2c1=O [Example 153, 5-(5-chloro-3-fluoro-2-pyridinyl)-2-methyl-7-((2S)-2-(1-methyl-1H-pyrazol-4-yl)-4-morpholinyl)-3-propylpyrido[4,3-d]pyrimidin-4(3H)-one]"
+++ (Emax>200 and ≤300),< 50,"Cc1nc2cc([C@H]3CCO[C@@H](c4cnn(C5CC5)c4)C3)nc(-c3ccc(Cl)cc3F)c2c(=O)n1C (single isomer, unassigned) [Example 165]"
+++ (Emax>200 and ≤300),500 to 3000,"Cc1nc2cc(N3CCO[C@H](c4cnn(C)c4)C3)nc(-c3ccc(Cl)cc3F)c2c(=O)n1C [Example 2, 5-(4-chloro-2-fluorophenyl)-2,3-dimethyl-7-((2R)-2-(1-methyl-1H-pyrazol-4-yl)-4-morpholinyl)pyrido[4,3-d]pyrimidin-4(3H)-one]"
++ (Emax>100 and ≤200),3000 to 100000,"Cc1cnc2n1CCN(c1cc3nc(C)n(C)c(=O)c3c(-c3ccc(Cl)cc3F)n1)C2 [Example 223, 5-(4-chloro-2-fluorophenyl)-2,3-dimethyl-7-(3-methyl-5,6-dihydroimidazo[1,2-a]pyrazin-7(8H)-yl)pyrido[4,3-d]pyrimidin-4(3H)-one]"
+++ (Emax>200 and ≤300),3000 to 100000,"Cc1nc2cc(N3CCO[C@H](C4CC4)C3)nc(-c3ccc(Cl)cc3F)c2c(=O)n1C [Example 194, (R)-5-(4-chloro-2-fluorophenyl)-7-(2-cyclopropylmorpholino)-2,3-dimethylpyrido[4,3-d]pyrimidin-4(3H)-one]"
++++ (Emax>300),500 to 3000,"Cc1nc2cc(N3CCOC(CC(F)(F)F)C3)nc(-c3ccc(Cl)cc3F)c2c(=O)n1C (stereo not shown) [Example 53, 5-(4-chloro-2-fluorophenyl)-2,3-dimethyl-7-(2-(2,2,2-trifluoroethyl)-4-morpholinyl)pyrido[4,3-d]pyrimidin-4(3H)-one]"
+++ (Emax>200 and ≤300),50 to 500,"Cc1nn(C)cc1C1CN(c2cc3nc(C)n(C)c(=O)c3c(-c3ccc(Cl)cc3F)n2)CCO1 (stereo not shown) [Example 68, 5-(4-chloro-2-fluorophenyl)-7-(2-(1,3-dimethyl-1H-pyrazol-4-yl)-4-morpholinyl)-2,3-dimethylpyrido[4,3-d]pyrimidin-4(3H)-one]"
+++ (Emax>200 and ≤300),3000 to 100000,"Cc1nc2cc(N3CCc4ncccc4C3)nc(-c3ccc(Cl)cc3F)c2c(=O)n1C [Example 248, 5-(4-chloro-2-fluorophenyl)-7-(7,8-dihydro-1,6-naphthyridin-6(5H)-yl)-2,3-dimethylpyrido[4,3-d]pyrimidin-4(3H)-one]"
++++ (Emax>300),< 50,"Cc1nc2cc(N3CCO[C@@H](c4cnn(C(F)F)c4)C3)nc(-c3ccc(Cl)cc3F)c2c(=O)n1C [Example 253, (S)-5-(4-chloro-2-fluorophenyl)-7-(2-(1-(difluoromethyl)-1H-pyrazol-4-yl)morpholino)-2,3-dimethylpyrido[4,3-d]pyrimidin-4(3H)-one]"
++++ (Emax>300),500 to 3000,"CCCn1c(C)nc2cc(N3CCO[C@@H](C(F)F)C3)nc(-c3ccc(Cl)cc3F)c2c1=O [Example 156, 5-(4-chloro-2-fluorophenyl)-7-((2R)-2-(difluoromethyl)-4-morpholinyl)-2-methyl-3-propylpyrido[4,3-d]pyrimidin-4(3H)-one]"
++++ (Emax>300),50 to 500,"Cn1cc([C@H]2CN(c3cc4nc(C(F)(F)F)n(C)c(=O)c4c(-c4ccc(Cl)cc4F)n3)CCO2)cn1 [Example 143, 5-(4-chloro-2-fluorophenyl)-3-methyl-7-((2S)-2-(1-methyl-1H-pyrazol-4-yl)-4-morpholinyl)-2-(trifluoromethyl)pyrido[4,3-d]pyrimidin-4(3H)-one]"
+++ (Emax>200 and ≤300),< 50,"Cc1nc2cc(N3CCO[C@@H](c4cnn(C5CC(F)(F)C5)c4)C3)nc(-c3ccc(Cl)cc3F)c2c(=O)n1C [Example 131, 5-(4-chloro-2-fluorophenyl)-7-((2S)-2-(1-(3,3-difluorocyclobutyl)-1H-pyrazol-4-yl)-4-morpholinyl)-2,3-dimethylpyrido[4,3-d]pyrimidin-4(3H)-one]"
++++ (Emax>300),50 to 500,"Cc1nc2cc([C@H]3CCO[C@@H](c4cccnc4)C3)nc(-c3ccc(Cl)cc3F)c2c(=O)n1C (single isomer, unassigned) [Example 177]"
+++ (Emax>200 and ≤300),50 to 500,"Cc1nc2cc(N3CCc4ccnc(Cl)c4C3)nc(-c3ccc(Cl)cc3F)c2c(=O)n1C [Example 115, 7-(8-chloro-3,4-dihydro-2,7-naphthyridin-2(1H)-yl)-5-(4-chloro-2-fluorophenyl)-2,3-dimethylpyrido[4,3-d]pyrimidin-4(3H)-one]"
+++ (Emax>200 and ≤300),< 50,"COc1cc([C@@H]2C[C@H](c3cc4nc(C)n(C)c(=O)c4c(-c4ccc(Cl)cc4F)n3)CCO2)ccn1 [Example 267, 5-(4-chloro-2-fluorophenyl)-7-((2S,4R)-2-(2-methoxypyridin-4-yl)tetrahydro-2H-pyran-4-yl)-2,3-dimethylpyrido[4,3-d]pyrimidin-4(3H)-one]"
++++ (Emax>300),50 to 500,"Cc1nc2cc(N3CCC(c4cccnc4)C3)nc(-c3ccc(Cl)cc3F)c2c(=O)n1C (stereo not shown) [Example 121, 5-(4-chloro-2-fluorophenyl)-2,3-dimethyl-7-(3-(3-pyridinyl)-1-pyrrolidinyl)pyrido[4,3-d]pyrimidin-4(3H)-one]"
++++ (Emax>300),500 to 3000,"Cc1nc2cc([C@@H]3CCO[C@@H](c4cccnc4)C3)nc(-c3ccc(Cl)cc3F)c2c(=O)n1C (relative stereo) [Example 176, 5-(4-chloro-2-fluorophenyl)-2,3-dimethyl-7-((2R,4R)-2-(3-pyridinyl)tetrahydro-2H-pyran-4-yl)pyrido[4,3-d]pyrimidin-4(3H)-one and 5-(4-chloro-2-fluorophenyl)-2,3-dimethyl-7-((2S,4S)-2-(3-pyridinyl)tetrahydro-2H-pyran-4-yl)pyrido[4,3-d]pyrimidin-4(3H)-one]"
++ (Emax>100 and ≤200),500 to 3000,"Cc1nc2cc(N3CCc4ncn(C)c4C3)nc(-c3ccc(Cl)cc3F)c2c(=O)n1C [Example 222, 5-(4-chloro-2-fluorophenyl)-2,3-dimethyl-7-(3-methyl-3,4,6,7-tetrahydro-5H-imidazo[4,5-c]pyridin-5-yl)pyrido[4,3-d]pyrimidin-4(3H)-one]"

SMILES,Emax,EC50 [nM]
"Cc1nc2cc(N3CCO[C@@H](c4cnn(C)c4)C3)nc(C3CCCCC3)c2c(=O)n1C [Example 159, 5-cyclohexyl-2,3-dimethyl-7-((2S)-2-(1-methyl-1H-pyrazol-4-yl)-4-morpholinyl)pyrido[4,3-d]pyrimidin-4(3H)-one]",+++ (Emax>200 and ≤300),500 to 3000
"Cn1cc([C@H]2CN(c3cc4ncn(C)c(=O)c4c(-c4ccc(Cl)cc4F)n3)CCO2)cn1 [Example 158, 5-(4-chloro-2-fluorophenyl)-3-methyl-7-((2S)-2-(1-methyl-1H-pyrazol-4-yl)-4-morpholinyl)pyrido[4,3-d]pyrimidin-4(3H)-one]",+++ (Emax>200 and ≤300),500 to 3000

# Source: patent publication US20250388574A1, “HETEROCYCLIC COMPOUNDS AS TRIGGERING RECEPTOR EXPRESSED ON MYELOID CELLS 2 AGONISTS AND METHODS OF USE” (AMGEN INC., priority 2020, published 2025)
